Data: ChEMBL document CHEMBL6121019, “Design, synthesis and biological evaluation of bisnoralcohol derivatives as novel IRF4 inhibitors for the treatment of multiple myeloma” (Eur J Med Chem, 2025)
Active and inactive are the calls of the source. No cut-off for these calls is given here.

Legend:
[1] = target: T1, Interferon regulatory factor 4 (Homo sapiens, UniProt Q15306); assay: Inhibition of IRF4 (unknown origin) incubated for 1 hr by fluorescence polarization assay
T1 sequence (Q15306 whole entry): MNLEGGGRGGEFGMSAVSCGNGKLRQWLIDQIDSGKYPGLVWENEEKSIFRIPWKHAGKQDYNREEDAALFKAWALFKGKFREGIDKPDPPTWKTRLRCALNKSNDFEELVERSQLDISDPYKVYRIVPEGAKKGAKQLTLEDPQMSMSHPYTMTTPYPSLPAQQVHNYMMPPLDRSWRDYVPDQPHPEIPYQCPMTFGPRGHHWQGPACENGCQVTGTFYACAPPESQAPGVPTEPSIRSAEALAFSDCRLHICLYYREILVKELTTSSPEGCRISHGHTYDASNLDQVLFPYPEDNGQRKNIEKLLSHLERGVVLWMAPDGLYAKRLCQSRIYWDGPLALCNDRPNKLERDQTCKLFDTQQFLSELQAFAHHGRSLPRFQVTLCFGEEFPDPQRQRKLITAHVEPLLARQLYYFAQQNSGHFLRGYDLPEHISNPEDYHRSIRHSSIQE

[2] = Antiproliferative activity against human HAF cells assessed as inhibition of cell viability measured after 72 hrs by MTS assay; type: toxicity, cell-based
NCI-H929 [3] = assay: Antiproliferative activity against human NCI-H929 cells assessed as inhibition of cell viability measured after 72 hrs by MTS assay; type: functional, cell-based; settings: NCI-H929, 72 h
[4] = Selectivity ratio IC50 for human RPMI-8226 cells to IC50 for human NCI-H929 cells; type: toxicity
[5] = Antiproliferative activity against human MM1.R cells assessed as inhibition of cell viability measured after 72 hrs by MTS assay; type: functional, cell-based; settings: MM.1R
[6] = Antiproliferative activity against human HaCaT cells assessed as inhibition of cell viability measured after 72 hrs by MTS assay; type: toxicity, cell-based
RPMI-8226 = assay: Antiproliferative activity against human RPMI-8226 cells assessed as inhibition of cell viability measured after 72 hrs by MTS assay; type: functional, cell-based; settings: RPMI-8226, 72 h
[7] = Selectivity ratio IC50 for human RPMI-8226 cells to IC50 for human MM1.R cells; type: toxicity
NCI-H929 [8] = assay: Antitumor activity against human NCI-H929 cells xenografted in Balb/C nude mouse model assessed as reduction in Ki67 expression at 25 mg/kg by immunohistochemical staining based analysis; type: functional, organism-based
NCI-H929 [9] = assay: Antitumor activity against human NCI-H929 cells xenografted in Balb/C nude mouse model assessed as inhibition of Akt phosphorylation level at 25 mg/kg by Western blot analysis; type: functional, organism-based
[10] = Toxicity in Balb/C nude mouse assessed as side effects at 25 mg/kg administered once daily and measured every three days for 34 days by H and E staining based analysis; type: organism-based; settings: in vivo, 816 h, time 34 day
NCI-H929 [11] = assay: Antitumor activity against human NCI-H929 cells xenografted in Balb/C nude mouse model assessed as increase in gammaH2AX expression at 25 mg/kg by Western blot analysis; type: functional, organism-based
NCI-H929 [12] = assay: Antitumor activity against human NCI-H929 cells xenografted in Balb/C nude mouse model assessed as inhibition of ERK phosphorylation level at 25 mg/kg by Western blot analysis; type: functional, organism-based
NCI-H929 [13] = assay: Antitumor activity against human NCI-H929 cells xenografted in Balb/C nude mouse model assessed as inhibition of […] expression at 25 mg/kg by Western blot analysis; type: functional, organism-based
[14] = Toxicity in Balb/C nude mouse assessed as changes in main organ at 25 mg/kg administered once daily and measured every three days for 34 days by H and E staining based analysis; type: organism-based; settings: in vivo, 816 h, time 34 day
NCI-H929 [15] = assay: Antitumor activity against human NCI-H929 cells xenografted in Balb/C nude mouse model assessed as inhibition of inhibition of cyclin D1 expression at 25 mg/kg by Western blot analysis; type: functional, organism-based
[16] = Toxicity in Balb/C nude mouse assessed as change in body weight at 25 mg/kg administered once daily and measured every three days for 34 days; type: organism-based; settings: in vivo, 816 h, time 34 day

## C[C@H](C(=O)Nc1ccc(O)cc1)[C@H]1CC[C@H]2[C@@H]3C(=O)C=C4C(C)(C)C(=O)C(C#N)=C[C@]4(C)[C@H]3CC[C@]12C
[1]
  IC50: 3.52 µM
[2]
  IC50 at 72 h: > 100 µM
NCI-H929 [3]
  IC50: 0.49 µM
[4]
  Ratio IC50: 5
[5]
  IC50: 0.57 µM
[6]
  IC50 at 72 h: > 100 µM
RPMI-8226
  IC50: 2.45 µM
[7]
  Ratio IC50: 4.3

## C[C@H](C(=O)n1ccnc1)[C@H]1CC[C@H]2[C@@H]3C(=O)C=C4C(C)(C)C(=O)C(C#N)=C[C@]4(C)[C@H]3CC[C@]12C
[1]
  IC50: 3.88 µM
[2]
  IC50 at 72 h: > 100 µM
NCI-H929 [3]
  IC50: 2.57 µM
[4]
  Ratio IC50: 3
[5]
  IC50: 4.46 µM
[6]
  IC50 at 72 h: > 100 µM
RPMI-8226
  IC50: 7.65 µM
[7]
  Ratio IC50: 1.7

## C[C@H](C(=O)NC1CCCCC1)[C@H]1CC[C@H]2[C@@H]3C(=O)C=C4C(C)(C)C(=O)C(C#N)=C[C@]4(C)[C@H]3CC[C@]12C
[1]
  IC50: 16.4 µM

## C[C@H](C(=O)Nc1ccccc1)[C@H]1CC[C@H]2[C@@H]3C(=O)C=C4C(C)(C)C(=O)C(C#N)=C[C@]4(C)[C@H]3CC[C@]12C
[1]
  IC50: 4.86 µM
[2]
  IC50 at 72 h: > 100 µM
NCI-H929 [3]
  IC50: 0.7 µM
[4]
  Ratio IC50: 1
[5]
  IC50: 0.11 µM
[6]
  IC50 at 72 h: > 100 µM
RPMI-8226
  IC50: 0.72 µM
[7]
  Ratio IC50: 6.5

## C[C@H](C(=O)O)[C@H]1CC[C@H]2[C@@H]3C(=O)C=C4C(C)(C)C(=O)C(C#N)=C[C@]4(C)[C@H]3CC[C@]12C
[1]
  IC50: 13.5 µM
[2]
  IC50 at 72 h: > 100 µM
NCI-H929 [3]
  IC50: 2.63 µM
[4]
  Ratio IC50: 1.6
[5]
  IC50: 3.16 µM
[6]
  IC50 at 72 h: > 100 µM
RPMI-8226
  IC50: 4.25 µM
[7]
  Ratio IC50: 1.2

## COc1ccc(NC(=O)CC[C@@H](C)[C@H]2CC[C@H]3[C@@H]4C(=O)C=C5C(C)(C)C(=O)C(C#N)=C[C@]5(C)[C@H]4CC[C@]23C)cc1
[1]
  IC50: 17.9 µM

## CCCNC(=O)[C@@H](C)[C@H]1CC[C@H]2[C@@H]3C(=O)C=C4C(C)(C)C(=O)C(C#N)=C[C@]4(C)[C@H]3CC[C@]12C
[1]
  IC50: > 20 µM

## C[C@H](C(=O)Nc1ccc2cc[nH]c2c1)[C@H]1CC[C@H]2[C@@H]3C(=O)C=C4C(C)(C)C(=O)C(C#N)=C[C@]4(C)[C@H]3CC[C@]12C
[1]
  IC50: 11.6 µM

## CCCCc1ccc(NC(=O)[C@@H](C)[C@H]2CC[C@H]3[C@@H]4C(=O)C=C5C(C)(C)C(=O)C(C#N)=C[C@]5(C)[C@H]4CC[C@]23C)cc1
[1]
  IC50: > 20 µM

## C[C@H](C(=O)Nc1ccc(C(F)(F)F)cc1)[C@H]1CC[C@H]2[C@@H]3C(=O)C=C4C(C)(C)C(=O)C(C#N)=C[C@]4(C)[C@H]3CC[C@]12C
[1]
  IC50: > 20 µM

## CCNC(=O)[C@@H](C)[C@H]1CC[C@H]2[C@@H]3C(=O)C=C4C(C)(C)C(=O)C(C#N)=C[C@]4(C)[C@H]3CC[C@]12C
[1]
  IC50: > 20 µM

## C[C@H](C(=O)Nc1nccs1)[C@H]1CC[C@H]2[C@@H]3C(=O)C=C4C(C)(C)C(=O)C(C#N)=C[C@]4(C)[C@H]3CC[C@]12C
[1]
  IC50: 14.2 µM

## CCc1ccc(NC(=O)[C@@H](C)[C@H]2CC[C@H]3[C@@H]4C(=O)C=C5C(C)(C)C(=O)C(C#N)=C[C@]5(C)[C@H]4CC[C@]23C)cc1
[1]
  IC50: 12.8 µM

## COc1cc(NC(=O)[C@@H](C)[C@H]2CC[C@H]3[C@@H]4C(=O)C=C5C(C)(C)C(=O)C(C#N)=C[C@]5(C)[C@H]4CC[C@]23C)cc(OC)c1
[1]
  IC50: 7.06 µM

## C#CCNC(=O)[C@@H](C)[C@H]1CC[C@H]2[C@@H]3C(=O)C=C4C(C)(C)C(=O)C(C#N)=C[C@]4(C)[C@H]3CC[C@]12C
[1]
  IC50: > 20 µM

## CCOc1ccc(NC(=O)[C@@H](C)[C@H]2CC[C@H]3[C@@H]4C(=O)C=C5C(C)(C)C(=O)C(C#N)=C[C@]5(C)[C@H]4CC[C@]23C)cc1
[1]
  IC50: 10.8 µM

## CCCCOc1ccc(NC(=O)[C@@H](C)[C@H]2CC[C@H]3[C@@H]4C(=O)C=C5C(C)(C)C(=O)C(C#N)=C[C@]5(C)[C@H]4CC[C@]23C)cc1
[1]
  IC50: 16.6 µM

## CCCOC(=O)[C@@H](C)[C@H]1CC[C@H]2[C@@H]3C(=O)C=C4C(C)(C)C(=O)C(C#N)=C[C@]4(C)[C@H]3CC[C@]12C
[1]
  IC50: > 20 µM

## C[C@H](C(=O)n1cccn1)[C@H]1CC[C@H]2[C@@H]3C(=O)C=C4C(C)(C)C(=O)C(C#N)=C[C@]4(C)[C@H]3CC[C@]12C
[1]
  IC50: 3.79 µM
[2]
  IC50 at 72 h: > 100 µM
NCI-H929 [3]
  IC50: 0.06 µM
[4]
  Ratio IC50: 5.7
[5]
  IC50: 0.24 µM
[6]
  IC50 at 72 h: > 100 µM
RPMI-8226
  IC50: 0.34 µM
[7]
  Ratio IC50: 1.4

## CNC(=O)[C@@H](C)[C@H]1CC[C@H]2[C@@H]3C(=O)C=C4C(C)(C)C(=O)C(C#N)=C[C@]4(C)[C@H]3CC[C@]12C
[1]
  IC50: 16.4 µM

## Cc1ccc(NC(=O)[C@@H](C)[C@H]2CC[C@H]3[C@@H]4C(=O)C=C5C(C)(C)C(=O)C(C#N)=C[C@]5(C)[C@H]4CC[C@]23C)cc1
[1]
  IC50: 3.65 µM
[2]
  IC50 at 72 h: > 100 µM
NCI-H929 [3]
  IC50: 0.22 µM
[4]
  Ratio IC50: 1.2
[5]
  IC50: 0.27 µM
[6]
  IC50 at 72 h: > 100 µM
RPMI-8226
  IC50: 0.26 µM
[7]
  Ratio IC50: 1

## C[C@H](C(=O)Nc1cccnc1)[C@H]1CC[C@H]2[C@@H]3C(=O)C=C4C(C)(C)C(=O)C(C#N)=C[C@]4(C)[C@H]3CC[C@]12C
[1]
  IC50: 5.05 µM

## Nc1cccc2c1CN(C1CCC(=O)NC1=O)C2=O (centres undefined) [LENALIDOMIDE]
[1]
  IC50: > 20 µM
NCI-H929 [8]
  Activity: inactive
NCI-H929 [9]
  Activity: Active
[10]
  Activity: Non-toxic
NCI-H929 [11]
  Activity: Active
NCI-H929 [12]
  Activity: Active
NCI-H929 [13]
  Activity: Active
[2]
  IC50 at 72 h: > 100 µM
NCI-H929 [3]
  IC50: 2.39 µM
[5]
  IC50: 4.52 µM
[14]
  Activity: Non-toxic
[6]
  IC50 at 72 h: > 100 µM
RPMI-8226
  IC50: 50.2 µM
NCI-H929 [15]
  Activity: Active
[16]
  Activity: Non-toxic

## C[C@H](C(=O)Nc1ccccc1O)[C@H]1CC[C@H]2[C@@H]3C(=O)C=C4C(C)(C)C(=O)C(C#N)=C[C@]4(C)[C@H]3CC[C@]12C
[1]
  IC50: 15 µM

## C[C@H](C(=O)Oc1ccc(C(F)(F)F)cc1)[C@H]1CC[C@H]2[C@@H]3C(=O)C=C4C(C)(C)C(=O)C(C#N)=C[C@]4(C)[C@H]3CC[C@]12C
[1]
  IC50: > 20 µM

## C[C@H](C(=O)Nc1ncco1)[C@H]1CC[C@H]2[C@@H]3C(=O)C=C4C(C)(C)C(=O)C(C#N)=C[C@]4(C)[C@H]3CC[C@]12C
[1]
  IC50: 7.61 µM

## C[C@H](C(=O)Nc1ccc2ncsc2c1)[C@H]1CC[C@H]2[C@@H]3C(=O)C=C4C(C)(C)C(=O)C(C#N)=C[C@]4(C)[C@H]3CC[C@]12C
[1]
  IC50: 12.1 µM

## C[C@H](C(=O)O)[C@H]1CC[C@H]2[C@@H]3CC=C4C(C)(C)C(=O)C(C#N)=C[C@]4(C)[C@H]3CC[C@]12C
[1]
  IC50: > 20 µM
